# Measurements reported in patent publication US7056908B2, “Pharmaceutical compositions and methods for preventing skin tumor formation and causing regression of existing tumors” (priority 1991, dated 2006).
# Columns and labels:
# Assay type in all cases: cell-based, mouse
# SP-1 cells = assay: Morphological differentiation of SP-1 neoplastic keratinocyte cell line; details: for morphological changes: 24 hours, 10 nM staurosporine or 160 nM TPA
# primary keratinocytes [1] = assay: Epidermal transglutaminase activity in primary keratinocytes; details: 9 hours, 1.4 mM Ca2+ medium; for increase in epidermal transglutaminase activity: 8 day old cultures
# Protocol: Enzyme Assays. Activity of epidermal transglutaminase was determined by measuring cross-linking of ^3H-putrescine to dimethylcasein (20). Cell lysates were incubated at […] for 10 minutes to inactivate tissue transglutaminase. Ornithine decarboxylase activity of cell lysates was determined by quantifying release of ^14CO2 from ^14C-ornithine (Sako, T. et al, “Partial parallelism and partial blockade by bryostatin 1 of effects of phorbol ester tumor promoters on primary mouse epidermal cells,” Cancer Res., 47: 5445–5450, 1987).
# Epidermal transglutaminase activity is elevated in terminally differentiating keratinocytes both in vivo and in vitro. […] Control cultures (0 nM dose) were treated with 0.1% DMSO. Each point is the average of duplicate dishes with the range indicated by error bars.
# primary keratinocytes [2] = assay: Morphological changes and detachment of primary keratinocytes; details: for alteration of cell morphology first detectable after: 10 nM staurosporine or 160 nM TPA, 0.05 mM Ca2+ medium
# 308 cells = assay: Morphological differentiation of 308 neoplastic keratinocyte cell line; details: for morphological changes: 24 hours, 10 nM staurosporine or 160 nM TPA
# 40 kD protein (pp40) = assay: 32P phosphoprotein analysis in digitonin-permeabilized keratinocytes; details: for phosphorylation of band at about 40 kD (pp40): 160 nM TPA or 10 nM staurosporine
# Protocol: Cell Permeabilization and ^32P-Labelled Phosphoprotein Analysis. Primary mouse keratinocytes were permeabilized with digitonin to facilitate uptake of ^32P-ATP essentially as described (Erusalimsky, J. D. et al, “Diacylglycerols, and phorbol esters rapidly stimulate the phosphorylation of an Mr=80,000 protein kinase C substrate in permeabilized 3T3 cells,” J. Biol. Chem., 263: 19188–19194, 1988). To first assess the efficacy of permeabilization at different digitonin concentrations, 5–10 μg/ml of the DNA-binding fluorochrome propidium iodide (Jones, K. H. et al, “An improved method to determine cell viability by simultaneous staining with fluorescein diacetate-propidium iodide,” J. Histochem. Cytochem., 33: 77–79, 1985) was added to permeabilization buffer instead of labelled ATP. After incubation at 37° for 1–3 minutes, the buffer was removed and cells washed 3–4 times with PBS prior to fluorescence microscopy. […] Following ^32P-labelling, cells were immediately harvested and lysates subject to SDS/8.5% polyacrylamide gel electrophoresis. Approximate molecular weights were determined using pre-stained protein markers (Amersham, Arlington Heights, Ill.). Dried gels were exposed to Kodak X-Omat AR film at −70° prior to development.
# Cells were harvested immediately and proteins separated by SDS/PAGE. Dried gels were exposed to Kodak X-Omat AR film at −70° for 12–24 hours prior to development.
# c-fos mRNA = c-fos mRNA Northern blot in primary keratinocytes; details: for time of maximum c-fos mRNA expression: 8 hour treatment, medium with 0.5% serum
# Protocol: RNA Isolation and Northern Blot Analysis. RNA was isolated by ultracentrifugation of guanidine isothiocyanate lysates through a 5.7M cesium chloride gradient (Chirgwin, J. M. et al, “Isolation of biologically active ribonucleic acid from sources enriched in ribonuclease,” Biochemistry, 18: 5294–5299, 1979). 20 μg of total RNA was loaded per lane and electrophoresed through a 1% agarose gel containing 0.66 M formaldehyde (Davis, L. G. et al, “Basic Methods in Molecular Biology,” New York: Elsevier, 1986). RNA was blotted to reinforced nitrocellulose membrane (BA-S NC; Schleicher & Schuell, Keene, N.H.) and baked at 80° C. in a vacuum oven for 2 hours. Filter were pre-hybridized at 42° overnight in buffer containing 50% formamide as previously described (Yuspa, S. H. et al, “Expression of murine epidermal differentiation markers is tightly regulated by restricted extracellular calcium concentrations in vitro,” J. Cell Biol., 109: 1207–1217, 1989); approximately 20×10^6 dpm of probe was added and hybridization carried out overnight. The final wash performed at 65° using 0.2×SSC with 0.1% SDS. Filters were exposed to Kodak X-Omat AR film at −70° with intensifying screens. Mouse c-fos transcript was detected using a 1.2 kb Bg1 II to Sal I fragment from the Finkel-Biskis-Jinkins murine sarcoma virus sequence (Curran, T. et al, “Structure of the FBJ murine osteosarcoma virus genome: molecular cloning of the associated helper virus and the cellular homologue of the v-fos gene from mouse and human cells,” Mol. Cell. Biol., 3: 914–921, 1983). Following autoradiography, remaining probe was removed by washing in 1% glycerol in deionized water at 80° for 2 minutes (Davis, L. G. et al, “Basic Methods in Molecular Biology,” New York: Elsevier, 1986) and the filter was re-hybridized to a full-length rat glyceraldehyde phosphate dehydrogenase (GAPDH) cDNA in a pUC18 vector (Fort, P. et al, “Various rat adult tissues express only one major mRNA species from the glyceraldehydes-3-phosphate-dehydrogenase multigenic family,” Nucleic. Acids. Res., 13: 1431–1442, 1985). […]
# [3] = doses ranging from 1.6 nM to 16 uM
# [4] = morphological response to staurosporine
SMILES,morphological changes (SP-1 cells),inducing morphological differentiation (SP-1 cells; [3]),increase in epidermal transglutaminase activity (primary keratinocytes [1]; 100 and 1000 nM),alteration of cell morphology first detectable after (primary keratinocytes [2]),"cells rounded-up and detached from the substrate (primary keratinocytes [2]; 160 nM TPA, after 24 hours)",morphological changes (308 cells),inducing morphological differentiation (308 cells; [3]),phosphorylation of band at about 40 kD (pp40) (40 kD protein (pp40); 3 minutes),time of maximum c-fos mRNA expression (c-fos mRNA),treatment time required for a maximal response (SP-1 cells; [4]),increase in epidermal transglutaminase activity (primary keratinocytes [1]; 10 nM),dose to which induction of transglutaminase activity is restricted (primary keratinocytes [1]),"cells detached from the substrate (primary keratinocytes [2]; 10 nM staurosporine, 24 hours)",treatment time required for a maximal response (primary keratinocytes [2]; [4]),treatment time required for a maximal response (308 cells; [4]),"overall protein phosphorylation (40 kD protein (pp40); 10 nM staurosporine, 3 minutes)",effect of co-exposure on TPA-mediated phosphorylation of pp40 (40 kD protein (pp40); 160 nM TPA and 10 nM staurosporine),inducing phosphorylation of pp40 (40 kD protein (pp40); additional doses ranging from 0.1 to 5 nM),c-fos mRNA expression on combined exposure with TPA (c-fos mRNA; staurosporine added just before TPA)
"CCCCCCCCCCCCCC(=O)O[C@@H]1[C@@H](C)[C@@]2(O)[C@@H](C=C(CO)C[C@]3(O)C(=O)C(C)=C[C@@H]23)[C@H]2C(C)(C)[C@]12OC(C)=O [TPA, 12-0-tetradecanoylphorbol-13-acetate, reference compound]",does not appreciably alter the appearance,ineffective,5 fold,20 minutes,about 50%,does not appreciably alter the appearance,ineffective,enhanced phosphorylation,6 h,,,,,,,,,,
CN[C@@H]1C[C@H]2O[C@@](C)([C@@H]1OC)n1c3ccccc3c3c4c(c5c6ccccc6n2c5c31)C(=O)NC4 [staurosporine],morphological changes similar to those seen in primary cells,,,20 minutes,,morphological changes similar to those seen in primary cells,,not detected,8 h,at least 48 hours,4 fold,10 nM,nearly all cells,24 h,at least 48 hours,reduction in overall protein phosphorylation,blocked the TPA-mediated phosphorylation,ineffective,higher expression of c-fos MRNA than TPA alone
